Reference: PubChem BioAssay (NCI)
“And” between values parts separate entries of the source, which are not always exact repeats. Identical values can stand only once.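 Five concentrations, 48 hours, 96-well plates. GI50 = concentration required for 50% inhibition of growth. TGI marks complete inhibition of growth.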

What was measured:
Assay in all cases: growth of human tumour cells (NCI), 48 h
[1] = test system: SF-539 CNS
[2] = test system: SNB-75 CNS
[3] = test system: SK-OV-3 ovarian
[4] = test system: NCI-H460 lung
[5] = test system: A549 NSCLC
[6] = test system: MDA-N
[7] = test system: T-47D breast
[8] = test system: SF-268 CNS
[9] = test system: IGROV1 ovarian
[10] = test system: OVCAR-8 ovarian
[11] = test system: HCT-15 colon
[12] = test system: OVCAR-5 ovarian
[13] = test system: K-562 leukemia
[14] = test system: NCI-H23 lung
[15] = test system: 786-0 renal
[16] = test system: SNB-19 CNS
[17] = test system: ACHN renal
[18] = test system: MALME-3M melanoma
[19] = test system: RPMI-8226 leukemia
[20] = test system: NCI/ADR-RES ovarian
[21] = test system: SW-620 colon
[22] = test system: UACC-257 melanoma
[23] = test system: PC-3 prostate
[24] = test system: UACC-62 melanoma
[25] = test system: OVCAR-3 ovarian
[26] = test system: RXF 393 renal
[27] = test system: KM12 colon
[28] = test system: CAKI-1 renal
[29] = test system: SK-MEL-2 melanoma
[30] = test system: HOP-92 NSCLC
[31] = test system: TK-10 renal
[32] = test system: NCI-H226 lung
[33] = test system: LOX IMVI melanoma
[34] = test system: HL-60(TB) leukemia
[35] = test system: COLO 205 colon
[36] = test system: HOP-62 NSCLC
[37] = test system: HCT-116 colon
[38] = test system: OVCAR-4 ovarian
[39] = test system: A498 renal
[40] = test system: HCC-2998 colon
[41] = test system: M14 melanoma
[42] = test system: HT29 colon
[43] = test system: SK-MEL-28 melanoma
[44] = test system: SK-MEL-5 melanoma
[45] = test system: HS 578T breast
[46] = test system: SN12C renal
[47] = test system: NCI-H522 lung
[48] = test system: SR leukemia
[49] = test system: U251 CNS
[50] = test system: SF-295 CNS
[51] = test system: DU-145 prostate
[52] = test system: EKVX NSCLC
[53] = test system: MDA-MB-435
[54] = test system: UO-31 renal
[55] = test system: MOLT-4 leukemia
[56] = test system: CCRF-CEM leukemia
[57] = test system: MCF7 breast
[58] = test system: BT-549 breast
[59] = test system: MDA-MB-231 breast

CC(C)(C)C=C=C(C(C)(C)C)P(=O)(O)O
TGI [1]: > 100 µM
TGI [2]: > 100 µM
TGI [3]: > 100 µM
TGI [4]: > 100 µM
TGI [5]: > 100 µM
TGI [6]: > 100 µM
TGI [7]: > 100 µM
TGI [8]: > 100 µM
TGI [9]: > 100 µM
TGI [10]: > 100 µM
TGI [11]: > 100 µM
TGI [12]: > 100 µM
TGI [13]: > 100 µM
TGI [14]: > 100 µM
TGI [15]: > 100 µM
TGI [16]: > 100 µM
TGI [17]: > 100 µM
TGI [18]: > 100 µM
TGI [19]: > 100 µM
TGI [20]: > 100 µM
TGI [21]: > 100 µM
TGI [22]: > 100 µM
TGI [23]: > 100 µM
TGI [24]: > 100 µM
TGI [25]: > 100 µM
TGI [26]: > 100 µM
TGI [27]: > 100 µM
TGI [28]: > 100 µM
TGI [29]: > 100 µM
TGI [30]: > 100 µM
TGI [31]: > 100 µM
TGI [32]: > 100 µM
TGI [33]: > 100 µM
TGI [34]: > 100 µM
TGI [35]: > 100 µM
TGI [36]: > 100 µM
TGI [37]: > 100 µM
TGI [38]: > 100 µM
TGI [39]: > 100 µM
TGI [40]: > 100 µM
TGI [41]: > 100 µM
TGI [42]: > 100 µM
TGI [43]: > 100 µM
TGI [44]: > 100 µM
TGI [45]: > 100 µM
TGI [46]: > 100 µM
TGI [47]: > 100 µM
TGI [48]: > 100 µM
TGI [49]: > 100 µM
TGI [50]: > 100 µM
TGI [51]: > 100 µM
TGI [52]: > 100 µM
TGI [53]: > 100 µM

COC(=O)C1(Cc2cccc(Cl)c2)CCCCCCN1C(=O)c1ccccc1 (configuration not stated)
TGI [2]: 29.6 µM
TGI [3]: 42.8 µM
TGI [4]: 33.8 µM
TGI [5]: 33.6 µM
TGI [54]: 29.3 µM
TGI [6]: 30.4 µM
TGI [55]: 32.1 µM
TGI [7]: 37.4 µM
TGI [8]: 42.1 µM
TGI [9]: 45.5 µM
TGI [10]: 33.4 µM
TGI [11]: 25.3 µM
TGI [12]: 44.7 µM
TGI [13]: 59.8 µM
TGI [14]: 51.1 µM
TGI [56]: 31.6 µM
TGI [15]: 26.3 µM
TGI [16]: 31.2 µM
TGI [17]: 30 µM
TGI [18]: 25.3 µM
TGI [19]: 32.2 µM
TGI [20]: 54.1 µM
TGI [21]: 36 µM
TGI [23]: 17.4 µM
TGI [24]: 28.5 µM
TGI [25]: 20.4 µM
TGI [30]: 35.6 µM
TGI [31]: 29.5 µM
TGI [32]: 48.8 µM
TGI [33]: 32.8 µM
TGI [34]: 34.3 µM
TGI [35]: 38.7 µM
TGI [36]: 29 µM
TGI [37]: 29.7 µM
TGI [57]: 26.6 µM
TGI [38]: 50.6 µM
TGI [39]: 29 µM
TGI [40]: 27.5 µM
TGI [41]: 45 µM
TGI [42]: 32.1 µM
TGI [43]: 31.7 µM
TGI [44]: 26.6 µM
TGI [46]: 28.1 µM
TGI [48]: 39.8 µM
TGI [58]: 40.8 µM
TGI [49]: 29.7 µM
TGI [50]: 22.1 µM
TGI [51]: 37.7 µM
TGI [52]: 26.8 µM
TGI [59]: 29 µM
TGI [53]: 51.8 µM

CC12ON=C(c3ccccc3)N1C=CN1C(c3ccccc3)=NOC12 (configuration not stated)
TGI [1]: > 100 µM
TGI [2]: > 100 µM
TGI [3]: > 100 µM
TGI [4]: > 100 µM
TGI [5]: > 100 µM
TGI [54]: > 100 µM
TGI [6]: > 100 µM
TGI [8]: > 100 µM
TGI [9]: > 100 µM
TGI [10]: > 100 µM
TGI [11]: > 100 µM
TGI [12]: > 100 µM
TGI [14]: > 100 µM
TGI [15]: > 100 µM
TGI [16]: > 100 µM
TGI [17]: > 100 µM
TGI [18]: > 100 µM
TGI [20]: > 100 µM
TGI [22]: > 100 µM
TGI [23]: > 100 µM
TGI [24]: > 100 µM
TGI [25]: > 100 µM
TGI [26]: > 100 µM
TGI [27]: > 100 µM
TGI [28]: > 100 µM
TGI [31]: > 100 µM
TGI [32]: > 100 µM
TGI [33]: > 100 µM
TGI [35]: > 100 µM
TGI [36]: > 100 µM
TGI [37]: > 100 µM
TGI [57]: > 100 µM
TGI [40]: > 100 µM
TGI [41]: > 100 µM
TGI [44]: > 100 µM
TGI [45]: > 100 µM
TGI [47]: > 100 µM
TGI [58]: > 100 µM
TGI [50]: > 100 µM
TGI [51]: > 100 µM
TGI [52]: > 100 µM
TGI [59]: > 100 µM

O=[N+]([O-])c1ccc2c(N=Nc3c(O)ccc4ccccc34)c(O)cc(S(=O)(=O)O)c2c1
TGI [1]: 50.8 µM
GI50 [2]: 44.8 µM
TGI [2]: 50 µM and > 100 µM
TGI [3]: 50 µM
TGI [4]: > 100 µM
GI50 [5]: 59.7 µM
TGI [5]: 50 µM and > 100 µM
GI50 [54]: 10.9 µM
TGI [54]: 18.9 µM and 51.5 µM
GI50 [6]: 45.3 µM
TGI [6]: 50 µM and > 100 µM
GI50 [55]: 15.7 µM
TGI [55]: 50 µM and > 100 µM
GI50 [8]: 23.9 µM
TGI [8]: 50 µM and > 100 µM
GI50 [9]: 27.7 µM
TGI [9]: 50 µM and > 100 µM
GI50 [10]: 31.3 µM
TGI [10]: 50 µM and > 100 µM
GI50 [11]: 29.9 µM
TGI [11]: 50 µM and > 100 µM
GI50 [12]: 70.3 µM
TGI [12]: 50 µM and > 100 µM
GI50 [13]: 25 µM
TGI [13]: 50 µM and > 100 µM
GI50 [14]: 49.8 µM
TGI [14]: 50 µM and > 100 µM
GI50 [56]: 19.8 µM
TGI [56]: 50 µM and > 100 µM
GI50 [15]: 30.7 µM
TGI [15]: 50 µM and > 100 µM
GI50 [16]: 19.3 µM
TGI [16]: 50 µM and > 100 µM
GI50 [17]: 18.1 µM
TGI [17]: 50 µM and > 100 µM
GI50 [18]: 50.1 µM
TGI [18]: 40.3 µM and > 100 µM
GI50 [19]: 67.1 µM
TGI [19]: 50 µM and > 100 µM
GI50 [20]: 40.6 µM
TGI [20]: 33.4 µM and > 100 µM
GI50 [21]: 57.7 µM
TGI [21]: 50 µM and > 100 µM
GI50 [22]: 32 µM
TGI [22]: 50 µM and > 100 µM
GI50 [23]: 34.5 µM
TGI [23]: 50 µM and > 100 µM
GI50 [24]: 34.2 µM
TGI [24]: 50 µM and > 100 µM
GI50 [25]: 9.36 µM
TGI [25]: 50 µM and > 100 µM
GI50 [26]: 27.1 µM
TGI [26]: 50 µM and > 100 µM
GI50 [27]: 49.9 µM
TGI [27]: 50 µM and > 100 µM
TGI [28]: 50 µM
GI50 [29]: 40.9 µM
TGI [29]: 50 µM and > 100 µM
TGI [30]: 50 µM
GI50 [31]: 87.3 µM
TGI [31]: 50 µM and > 100 µM
TGI [32]: 50 µM
TGI [33]: > 100 µM
GI50 [34]: 7.58 µM
TGI [34]: 14.9 µM and 58.6 µM
GI50 [35]: 53.4 µM
TGI [35]: 50 µM and > 100 µM
GI50 [36]: 17.1 µM
TGI [36]: 50 µM and > 100 µM
GI50 [37]: 25.6 µM
TGI [37]: 50 µM and > 100 µM
TGI [57]: > 100 µM
TGI [38]: 50 µM
TGI [40]: > 100 µM
TGI [41]: 10.5 µM
GI50 [42]: 49.6 µM
TGI [42]: 50 µM and > 100 µM
GI50 [43]: 32.5 µM
TGI [43]: 50 µM and > 100 µM
GI50 [44]: 46.7 µM
TGI [44]: 50 µM and > 100 µM
GI50 [45]: 67.2 µM
TGI [45]: > 100 µM
GI50 [46]: 59 µM
TGI [46]: 50 µM and > 100 µM
GI50 [47]: 17.4 µM
TGI [47]: 50 µM and > 100 µM
TGI [48]: > 100 µM
GI50 [58]: 37.5 µM
TGI [58]: 50 µM and > 100 µM
GI50 [49]: 12.5 µM
TGI [49]: 50 µM and > 100 µM
GI50 [50]: 29.5 µM
TGI [50]: 50 µM and > 100 µM
TGI [51]: > 100 µM
GI50 [52]: 39.4 µM
TGI [52]: > 100 µM
GI50 [59]: > 100 µM
TGI [59]: 50 µM and > 100 µM
GI50 [53]: 47.5 µM
TGI [53]: 50 µM and > 100 µM
